Here are results for 33 molecules from PubChem BioAssay AID434987 (Southern Research Specialized Biocontainment Screening …, 2010).

Active and inactive are the calls of the source. No rule for the calls is given here. Some results are limits rather than exact numbers.

The assay relates to M. tuberculosis H37Rv growth inhibition with meropenem. Nature of the assay: dose response, H37Rv, with and without meropenem (AID 434987).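 Also: growth over 7 days at 37 °C before Alamar Blue read on day 9.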
The mark [1] stands for this setting: M. tuberculosis H37Rv growth inhibition, measured here: IC50 without meropenem.
Setting [2] is: M. tuberculosis H37Rv growth inhibition, measured here: IC90 without meropenem.
Setting [3] is: measured here: IC90 with meropenem.

The term IC50 denotes the midpoint of a concentration-inhibition curve. In general, IC90 refers to the point of the concentration-response curve where the effect stands at 90%. A higher IC90 goes with a need for much substance. Take `COCCCn1c(=O)/c(=C\c2ccccc2OC(C)C)s/c1=C(/C#N)C(=O)Nc1ccc(C(=O)O)cc1`: the IC50 is 5.19 µM. This molecule had an IC50 under setting [1] of 13.6 µM. Also, the IC90 under setting [2] was > 100 µM. This molecule also displayed a 90% effect concentration (IC90) under setting [3] of 18.5 µM.

On to `O=S(=O)(Nc1ccccc1)c1ccc2c(c1)CCO2`, for which the IC50 was > 100 µM (inactive). Besides, the IC50 under setting [1] is > 100 µM. Moreover, the IC90 under setting [2] was > 100 µM. The IC90 under setting [3] is > 100 µM.

For the molecule `COc1ccc2c(c1)c(C(C)=O)c(C)n2-c1ccccc1`, the IC50 is 0.336 µM. Moreover, the IC50 under setting [1] was > 100 µM. Moreover, under setting [2], the IC90 is > 100 µM. In addition, under setting [3], the IC90 came out at 6.92 µM.

As to `CCOc1ccc2nc(NC(=O)c3cnccn3)sc2c1`, the IC50 was 4.07 µM. In addition, the IC50 under setting [1] is > 100 µM. For the same molecule, under setting [2], the IC90 is > 100 µM. The IC90 under setting [3] was > 100 µM.

For `Cc1cc(N2CCCCCC2)nc(-c2ccccc2O)n1`, the IC50 was 67.2 µM (inactive). In addition, the IC50 under setting [1] came to 91.3 µM. In addition, the IC90 under setting [2] is > 100 µM. The IC90 under setting [3] is > 100 µM.

Regarding `CCCCCC(=O)Nc1cccc(C2=NOC3(C2)C[C@@H](C(N)=O)N(C(=O)CC(c2ccccc2)c2ccccc2)C3)c1` (some centres not stated), the IC50 is 51.6 µM (inactive). The IC50 under setting [1] was > 100 µM. Besides, the IC90 under setting [2] is > 100 µM. Besides, the IC90 under setting [3] was > 100 µM.

Consider `Cc1ccc(C(=O)NCC2(c3ccccc3)CCCC2)cc1`, for which the IC50 is 75.3 µM (inactive). Moreover, the IC50 under setting [1] is > 100 µM. Under setting [2], the IC90 was > 100 µM. The IC90 under setting [3] is > 100 µM.

As for `COC(=O)CN1C(CN2CCOCC2)=Nc2ccc(Br)cc2C1c1ccccc1` (configuration not stated), the IC50 is > 100 µM (inactive). Also, the IC50 under setting [1] was > 100 µM. Also, the IC90 under setting [2] was > 100 µM. For the same molecule, the IC90 under setting [3] was > 100 µM.

Consider `CC(C)(C)[C@@H]1C=C(C(=O)Nc2ccccc2)O[C@H](OCc2ccc(CO)cc2)C1`, for which the IC50 was 75 µM (inactive). In addition, the IC50 under setting [1] stood at 93.1 µM. For the same molecule, the IC90 under setting [2] was > 100 µM. The IC90 under setting [3] was > 100 µM.

As to `CCn1cc(C(=O)O)c(=O)c2cc(F)c(N/N=C/c3ccccc3)cc21`, the IC50 was 22.8 µM (inactive). The IC50 under setting [1] came to 36.5 µM. Also, under setting [2], the IC90 is > 100 µM. Further, the IC90 under setting [3] is > 100 µM.

In the case of `Cc1ccc(C)c(CSc2nnc(C)c(=O)n2N)c1`, the IC50 was 5.73 µM. The same molecule showed an IC50 under setting [1] of 14.1 µM. The same molecule gave an IC90 under setting [2] of 39.5 µM. Besides, the IC90 under setting [3] came out at 20.4 µM.

`COc1cccc(NC(=O)C2CC2)c1`: the IC50 was 6.09 µM. Further, the IC50 under setting [1] is > 100 µM. The IC90 under setting [2] was > 100 µM. For the same molecule, the IC90 under setting [3] is > 100 µM.

For the molecule `O=S1(=O)CCO[C@H]2Cc3ccccc3[C@H]2N1Cc1ccc(Cl)cc1`, the IC50 was > 100 µM (inactive). In addition, the IC50 under setting [1] is > 100 µM. Besides, the IC90 under setting [2] was > 100 µM. Besides, the IC90 under setting [3] was > 100 µM.

In the case of `O=C(Nc1ccc(Br)cc1)c1cccnc1N1CCCCC1`, the IC50 is > 100 µM (inactive). Besides, under setting [1], the IC50 is > 100 µM. For the same molecule, under setting [2], the IC90 was > 100 µM. The IC90 under setting [3] is > 100 µM.

Regarding `Cc1cc(C)c(C)c(S(=O)(=O)N2C(=S)NC(=O)C2CC(C)C)c1C` (configuration not stated), the IC50 was > 100 µM (inactive). Also, the IC50 under setting [1] was > 100 µM. Further, the IC90 under setting [2] was > 100 µM. The IC90 under setting [3] was > 100 µM.

Regarding `CCCn1nnnc1NC(=O)COc1ccc(Cl)cc1C`, the IC50 was 12.4 µM (inactive). This molecule registered an IC50 under setting [1] of 24.3 µM. For the same molecule, under setting [2], the IC90 is 28.6 µM. The same molecule came in with an IC90 under setting [3] of 42.9 µM.

Take `N#Cc1c(-c2cccs2)cc(-c2ccccn2)nc1N`: the IC50 is 6.92 µM. For the same molecule, under setting [1], the IC50 is > 100 µM. The IC90 under setting [2] was > 100 µM. Also, the IC90 under setting [3] was > 100 µM.

In the case of `Brc1ccc(CNc2ccc3ncccc3c2)cc1`, the IC50 is > 100 µM (inactive). The IC50 under setting [1] is > 100 µM. In addition, the IC90 under setting [2] was > 100 µM. Besides, the 90% effect concentration (IC90) under setting [3] is > 100 µM.

Regarding `C=CCc1cc(Cl)ccc1OCCCNC(C)CC` (configuration not stated), the IC50 was 38.2 µM (inactive). This molecule also displayed an IC50 under setting [1] of 49.2 µM. Further, the IC90 under setting [2] was 55.1 µM. The IC90 under setting [3] stood at 51.3 µM.

Consider `O=C(Oc1c(-c2ccccc2Cl)oc2ccccc2c1=O)c1ccc(Cl)cc1`, for which the IC50 was 11 µM. For the same molecule, the IC50 under setting [1] amounted to 47.5 µM. The IC90 under setting [2] was > 100 µM. Besides, under setting [3], the IC90 is > 50 µM.

As for `O=C(COc1ccc(Cl)cc1)OCC(=O)N1CCCCCC1`, the IC50 was 45.5 µM (inactive). In addition, the IC50 under setting [1] is > 100 µM. In addition, the IC90 under setting [2] was > 100 µM. Under setting [3], the IC90 is > 100 µM.

Regarding `Cn1cccc1/C=C1/C(=O)NC(=O)N(Cc2ccc(F)cc2)C1=O`, the IC50 was 23.7 µM (inactive). Further, the half-inhibitory concentration (IC50) under setting [1] was determined as 46.2 µM. The IC90 under setting [2] is > 50 µM. In addition, the IC90 under setting [3] was > 50 µM.

In the case of `Cc1nnnn1/C(=C\c1ccccc1)C(=O)OCC(=O)Nc1ccc(Cl)cc1F`, the IC50 is 17 µM (inactive). This molecule also gave an IC50 under setting [1] of 26.7 µM. This molecule showed an IC90 under setting [2] of 35.8 µM. Besides, under setting [3], the IC90 amounted to 25.5 µM.

As for `CSc1ccc(-c2nnn(CC(=O)NCc3ccccc3)n2)cc1`, the IC50 is 15.8 µM. The IC50 under setting [1] is > 100 µM. In addition, under setting [2], the IC90 was > 100 µM. Further, under setting [3], the 90% effect concentration (IC90) was > 100 µM.

For the molecule `N#Cc1c(C(F)(F)F)cc(-c2ccccc2)nc1SCC(=O)Nc1sc2c(c1C#N)CCC2`, the IC50 was > 100 µM (inactive). Besides, the IC50 under setting [1] was > 100 µM. Besides, the IC90 under setting [2] was > 100 µM. Moreover, under setting [3], the IC90 was > 100 µM.

With `CCc1cc(C(=O)O)c(NC(=O)/C=C/c2ccc(OC)cc2)s1`, the 50% inhibitory concentration (IC50) is 8.76 µM. The same molecule gave an IC50 under setting [1] of 21.5 µM. Moreover, the IC90 under setting [2] is > 100 µM. Under setting [3], this molecule yielded an IC90 of 59.7 µM.

For the molecule `Cn1ccnc1C(=O)Cc1ccc([N+](=O)[O-])cc1`, the IC50 is 7.78 µM. Under setting [1], this molecule gave an IC50 of 44.1 µM. In addition, the concentration for an effect of 90% (IC90) under setting [2] turned out to be 48.9 µM. This molecule came in with an IC90 under setting [3] of 22.6 µM.

Regarding `CCCC1=C/C(=C/c2ccc(-c3ccccc3OC)o2)C(=O)O1`, the IC50 is 29.3 µM (inactive). Besides, under setting [1], the IC50 is 55.5 µM. Under setting [2], the IC90 was > 100 µM. Moreover, the IC90 under setting [3] is > 100 µM.

As for `COc1cc(CNCCO)cc(Br)c1OCc1ccccc1Cl`, the IC50 was 46.2 µM (inactive). The molecule also displayed an IC50 under setting [1] of 47.5 µM. The IC90 under setting [2] was 53.7 µM. Moreover, the IC90 under setting [3] is 52.7 µM.

With `COc1c(NC(C)=O)c2ccccc2c2ccccc12`, the IC50 is > 100 µM (inactive). Besides, the IC50 under setting [1] was > 100 µM. For the same molecule, the IC90 under setting [2] was > 100 µM. The IC90 under setting [3] was > 100 µM.

As for `Cc1[nH]n(-c2ccccc2)c(=O)c1/C=N/NC(=O)c1ccoc1C`, the IC50 was 0.655 µM. For the same molecule, the IC50 under setting [1] is > 100 µM. In addition, the IC90 under setting [2] is > 100 µM. Further, under setting [3], the IC90 stood at 3.01 µM.

For `CC(=O)Nc1nonc1-c1nc2ccccc2n1CCC(C)C`, the IC50 was > 100 µM (inactive). In addition, under setting [1], the IC50 was > 100 µM. The IC90 under setting [2] was > 100 µM. Moreover, the IC90 under setting [3] was > 100 µM.

As to `Cn1c(=O)[nH]c(=O)c2c1nc(Br)n2CCC(=O)c1ccccc1`, the IC50 is 38.6 µM. Also, the IC50 under setting [1] was > 100 µM. Under setting [2], the IC90 was > 100 µM. The IC90 under setting [3] was > 50 µM.
